Results taken from patent US20020086342A1, “Assays for identifying phosphatase inhibitors” (priority 2000, published 2002).

Experiments:
GST-PTPbr7 [1] = target: T1, GST-PTPbr7 (Mus musculus, UniProt Q62132); experiment: PTPbr7 inhibition assay: peptide substrate (malachite green readout); format: biochemical; conditions: sodium orthovanadate 1 mM; peptide ENDpYINASL 0.1 mM; GST-PTPbr7 4 μg; 30 min, 25° C., pH 7.4; in absence of inhibitor 0.65
T1 construct: purchased PanVera
T1 sequence (Q62132 24-656): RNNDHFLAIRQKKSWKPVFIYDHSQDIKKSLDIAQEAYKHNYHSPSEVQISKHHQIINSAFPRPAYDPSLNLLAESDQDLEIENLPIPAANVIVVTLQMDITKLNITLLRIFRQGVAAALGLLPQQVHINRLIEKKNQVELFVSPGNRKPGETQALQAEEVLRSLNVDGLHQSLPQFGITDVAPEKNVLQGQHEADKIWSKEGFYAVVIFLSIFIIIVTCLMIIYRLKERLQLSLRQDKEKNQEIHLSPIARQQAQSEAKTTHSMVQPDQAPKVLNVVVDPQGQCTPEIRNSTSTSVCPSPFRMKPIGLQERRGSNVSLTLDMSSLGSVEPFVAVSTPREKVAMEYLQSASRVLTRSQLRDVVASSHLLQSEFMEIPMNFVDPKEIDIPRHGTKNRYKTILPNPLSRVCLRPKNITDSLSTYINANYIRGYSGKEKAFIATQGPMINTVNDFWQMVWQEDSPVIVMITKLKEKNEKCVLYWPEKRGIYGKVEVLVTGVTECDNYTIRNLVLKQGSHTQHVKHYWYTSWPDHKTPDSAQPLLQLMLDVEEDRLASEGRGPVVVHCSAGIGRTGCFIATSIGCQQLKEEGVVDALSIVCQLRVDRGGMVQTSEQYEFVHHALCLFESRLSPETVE
Description: The ability of a test agent (positive control, non-specific tyrosine phosphatase inhibitor, sodium orthovanadate) to inhibit the dephosphorylation of a peptide having a phosphotyrosine residue by a PTPbr7 fusion protein was determined as follows.GST-PTPbr7 (4 μg, PanVera) is mixed together with the peptide [ENDpYINASL] (0.1 mM, American Peptide Company), with and without sodium orthovanadate (1 mM, SIGMA®-Aldrich), in a total volume of 25 μL assay buffer (50 mM Tris, 0.15 M NaCl, 5 mM DTT, 0.1% BSA), pH 7.4, at 25° C., in separate wells of a ½ volume 96-well microtiter plate (COSTAR #3690 plate), for 30 min.
The reactions were then terminated by the addition of 100 μL of MG/AM stop solution. MG (Malachite Green) solution was obtained from SIGMA®-Aldrich cat no. M9636, and can be prepared by dissolving 500 mg/L in dH2O, filtering the solution with a Whatman #1 filter, and storing at 4° C. AM (Ammonium Molybdate) solution was obtained from SIGMA®Aldrich cat. no. A7302, 42 g/L in 4 M HCl (345 mL concentration HCl/L, stored at 4° C.). MG/AM mixture was prepared by mixing one part AM to 3 parts MG, stirring for at least 30 min, at room temperature, filtering with a Whatman #5, and storing at 4° C. […]
The plate is then incubated at room temperature for 15 min and, after removing any bubbles, the optical density of the solution in each well was read at A620 (620 nm, spectrophotometer). […]

GST-PTPbr7 [2] = target: T1, GST-PTPbr7; experiment: PTPbr7 inhibition assay: fluorogenic substrate (O-methyl fluorophosphate); format: biochemical; conditions: sodium orthovanadate 1 mM; O-methyl fluorophosphate 10 μM; GST-PTPbr7 4 μg/mL; 30 min, room temperature; in absence of inhibitor 4100.00
Description: The ability of a test agent (positive control, non-specific tyrosine phosphatase inhibitor, sodium orthovanadate) to inhibit the dephosphorylation of a fluorogenic substrate by a PTPbr7 fusion protein was determined as follows.
80 μL of the diluted substrate (final concentration of 10 μM) was then added to each of two wells of a 96-well microtiter plate (COSTAR #3690 plate), followed by, in one of the wells, sodium orthovanadate (1 mM, final concentration), and in both wells, 20 μL of GST-PTPbr7 (4 μg, PanVera) to give a final enzyme concentration in each of the assays of 4 μg/mL. The reactions were incubated at room temperature for 30 min. For each reaction, the fluorescent emission was measured by excitation at 485 nm and emission at 535 nm using a Victor II plate reader (Packard). The presence of the test agent (sodium orthovanadate) in the reaction caused a decrease in the fluorescent signal (1250.00) compared to the reaction in the absence of inhibitor (4100.00).

PC12 cells = experiment: NGF-induced neurite outgrowth in PC12 cell lines transfected with full length mouse PTPbr7; format: cell-based, rat; conditions: 50 ng/mL NGF for 6 days
From the text: Total mouse brain RNA (Strategene) was subjected to RT-PCR cloning using […] as the 5′ primer, and […] as the 3′ primer (CPMB, see, in particular, Chapter 15, The Polymerase Chain Reaction, Supplement 30). The cDNA clone (full length mouse PTPbr7) was introduced into PC12 cells by transfection using Lipofectamine™ Reagent (Life Technologies) and substantially following the instructional sheet (for adherent cells, see also, CPMB, in particular, Chapter 9, Introduction of DNA into Mammalian Cells, Supplement 39) which specifies the concentration of DNA and reagent, cell density, transfection times, and transfection protocol. Stable cell lines were selected in (200 μg/mL) G418 (Life Technologies), as also provided by the instructional sheet, and the overexpressing cell lines were identified by Northern Blot analysis (see CPMB, in particular, Chapter 4, Preparation and Analysis of RNA, Chapter 4.9.1, Analysis of RNA by Northern Blot Hybridization, Supplement 26). The transfected cell lines were then treated with 50 ng/mL NGF (Life Technologies) for 6 days. The degree of neurite outgrowth was quantitated using photomicrographs where the total number of cells in the field was counted, then the cells were recounted that had one or more neurites that were greater than or equal to one cell body diameter in length, and a “% neurites” was determined.

[3] = tested on: PTPbr7 mRNA in PC12 cells; conditions: PC12 cells following treatment with NGF; Sharma and Lombroso 1995; cited from earlier work

optical density 620 nm (GST-PTPbr7 [1])	fluorescent signal (excitation 485 nm, emission 535 nm) (GST-PTPbr7 [2])	Compound	% Neurite on Day 6 (+NGF) (PC12 cells; cell line br7-9, PTPbr7 expression none)	% Neurite on Day 6 (+NGF) (PC12 cells; cell line br7-11, PTPbr7 expression high)	% Neurite on Day 6 (+NGF) (PC12 cells; cell line br7-12, PTPbr7 expression high)	% Neurite on Day 6 (+NGF) (PC12 cells; cell line br7-13, PTPbr7 expression high)	upregulation of PTPbr7 mRNA [3]
0.10	1250.00	[Na+].[Na+].[Na+].[O]=[V]([O-])([O-])[O-] [sodium orthovanadate]	–	–	–	–	–
–	–	NGF: Nerve growth factor, a neurotrophic factor which mediates the survival, differentiation and maintenance of specific populations of neurons	52%	26%	24%	32%	8 fold
